# How the values were obtained:
# in vitro [1] = conditions: mouse, 3T3-L1 cells during differentiation
# Protocol: Cell culture: 3T3-L1 cells were cultured at 37° C. in a humidified 5% CO2 atmosphere and grown in a culture medium (CM) (DMEM supplemented with 10% FBS, 100 units/ml penicillin and […] streptomycin). Differentiation conditions for 3T3-L1 were as described (Dowell et al, 2000). Briefly, confluent 3T3-L1 cells were maintained in culture medium for 48 hrs (day 0). Cells were placed in Differentiation Medium 1 (DM1) (CM with 167 nM insulin, 520 μM isobutylmethylxanthine (IBMX), and 1 μM dexamethasone) for a further 48 hrs (Day 2). The medium was then changed to differentiation medium 2 (DM2) (CM with 167 nM insulin) for a further 48 hrs (Day 4). The DM2 was then changed every 48 hrs for an additional 4 days (Day 8).
# (§1) Culture medium was removed at 24, 48 and 72 hrs and MTT (0.5 mg/ml in pure DMEM, 50 μl/well) was added.
# C/EBPα = assay: Immunoblotting, C/EBPα protein in 3T3-L1; assay type: cell-based, mouse; conditions: 8 days
# Protocol: Immunoblotting: Protein expression of SREBP-1, PPARγ, and C/EBPα relative to […] was assessed by Western Blot. Total proteins were isolated from 3T3-L1 cells treated with compounds or vehicles for 8 days. The cells were washed twice with PBS, lysed in a HEPES-Tx-PI buffer ([…], 5 mM EDTA, 350 mM Sucrose, 1 μg/ml leupeptin, 1 μg/ml pepstatin, 1% Triton-X, 1 mM PMSF), processed with 25G needles and centrifuged at 12,000 rpm for 5 min. Protein concentration was determined using the Micro BCA Protein Assay Kit (Fisher Scientific, Pittsburgh, Pa., USA) following the manufacturers instructions. 25 μg proteins were loaded and separated by electrophoresis using the BioRad Electrophoretic System (65 V for 7 hour). The proteins were then transferred to nitrocellulose membranes at 40 V overnight. The membrane was blocked for 1 hour at room temperature in 5% nonfat milk in Tris-buffered saline (TBS), then washed with Tween-20-TBS (TTBS, 0.1% Tween-20) three times (15 min, 5 min, 5 min), followed by incubation with primary antibodies SREBP-1 (dilution 1:200), PPARγ (dilution 1:200), C/EBPα (dilution 1:200) (all purchased from Santa Cruz Biotechnology, Santa Cruz, Calif., USA) and […] (dilution 1:1000, Sigma-Aldrich, St. Louis, Mo., USA) at room temperature for 2 hours. […]
# in vitro [2] = conditions: mouse, 3T3-L1 cells during proliferation
# Protocol: as §1
# 3T3-L1 cells = assay: Oil-Red-O staining and quantification, clozapine/risperidone induced adipogenesis in 3T3-L1 (Example 2); assay type: cell-based, mouse; conditions: 8 μM berberine, 8 days
# Protocol: Detailed protocol was described as our previous report (Hu et al., Phytomedicine (2009) 16(9):864-873).
# Oil-Red-O staining and quantification: Oil-Red-O Staining and its quantification were performed as previously reported (Liu et al., Sinica (2004) 25:1052-1057). Briefly, medium was removed and cells were washed with PBS twice, fixed with 3.7% formalin at room temperature for 30 min, then rinsed with pure water, added 60% isopropanol and incubated for 5 minutes, then moved out isopropanol and stained cells with diluted Oil-Red-O solution (Oil-Red-O store solution (3 mg/ml in pure isopropanol): water=3:2) at room temperature for 10 min. Then the diluted Oil-Red-O solution was removed and cells were washed 3 times with pure water. Images were obtained using an Olympus IX70 inverted microscope equipped for phase-contrast microscopy (Olympus, Tokyo, Japan). After staining, the cells were washed twice with 70% ethanol to remove excess stain. Stained oil droplets in the cells were dissolved in isopropanol containing 4% Nonidet-P40 (Fisher Scientific, Pittsburgh, Pa., USA) shaking in 37° C. at speed 100 rpm for 1 hour, and OD values were measured at an absorbance of 490 nm and then normalized with control group.
# GATA-2 = assay: Real-Time RT-PCR, GATA-2 mRNA in epididymal fat of FD mice; assay type: in vivo, mouse
# Protocol: RNA and protein purification and quantification from epididymal fat tissues: RNA and protein was isolated from 60 mg of epididymal fat tissues with Trizol (Invitrogen, Carlsbad, Calif., USA) following the protocol recommended by the manufacturers. RNA was dissolved in pure water and quantified at 260/280 nm, and sample integrity was checked by 1.5% agarose gel electrophoresis. Protein concentration was determined using the Micro BCA Protein Assay Kit (Fisher Scientific, Pittsburgh, Pa., USA) according to the manufacturer's instructions.
# Quantitative Real-Time RT-PCR: Real-Time reverse transcriptase polymerase chain reaction (RT-PCR) analysis was used to measure mRNA expression of genes PPARγ, C/EBPα, GATA-2 and GATA-3 in the control of β-actin. Total RNA (0.8 μg) from each sample was used for a reverse transcription reaction using the TaqMan Reverse Transcription Reagents (Applied Biosystems, Foster City, Calif., USA) following the manufacturer's instructions. PCR was done using the SYBR green Master Mix (Applied Biosystems, Foster City, Calif., USA) following the manufacturer's instructions. The cycling conditions of amplification were as follows: an initial step of denaturation at 95° C. for 10 min, 40 cycles of denaturation at 95° C. for 30 s, annealing at 55° C. for 30 s, and elongation at 72° C. for 30 s. Real-Time PCR was performed using Mx3000P Real-Time Thermocyclers (Stratagene, La Jolla, Calif., USA). The relative mRNA levels of these genes were calculated by 2-delta delta CT method and normalized with control-treated groups.
structure (smiles),measurement,setting,value
"COc1ccc2cc3[n+](cc2c1OC)CCc1cc2c(cc1-3)OCO2.[Cl-] [berberine, Berberine (Chloride Form)]","cytotoxicity at 2 days, 8 μM",in vitro [1],15.6%
same,"cytotoxicity at 4 days, 8 μM",in vitro [1],12.8%
same,"cytotoxicity at 6 days, 8 μM",in vitro [1],12.6%
same,"cytotoxicity at 8 days, 8 μM",in vitro [1],11.4%
same,decrease of C/EBPα protein expression vs clozapine treated group,C/EBPα; 8 μM berberine + 15 μM clozapine,73%
same,decrease of C/EBPα protein expression vs risperidone treated group,C/EBPα; 8 μM berberine + 50 μM risperidone,68%
same,"cytotoxicity at 1 day, 8 μM",in vitro [2],13.2%
same,"cytotoxicity at 2 days, 8 μM",in vitro [2],13.8%
same,"cytotoxicity at 3 days, 8 μM",in vitro [2],18.6%
same,reduction in lipid content vs no berberine treated group,3T3-L1 cells; 15 μM clozapine group,78.5%
same,reduction in lipid content vs no berberine treated group,3T3-L1 cells; 25 μM risperidone group,78.7%
same,reduction in lipid content vs no berberine treated group,3T3-L1 cells; 30 μM clozapine group,73.2%
same,reduction in lipid content vs no berberine treated group,3T3-L1 cells; 50 μM risperidone group,81%
same,reduction in lipid content vs no berberine treated group,3T3-L1 cells; control group (clozapine series),70%
same,reduction in lipid content vs no berberine treated group,3T3-L1 cells; control group (risperidone series),72%
same,GATA-2 mRNA expression increased to,GATA-2; 0.75 mg/kg/day,2.7 fold
same,GATA-2 mRNA expression increased to,GATA-2; 1.5 mg/kg/day,3.4 fold
same,GATA-2 mRNA expression increased to,GATA-2; 3 mg/kg/day,3.7 fold

# Reference: patent publication US20110281852A1 (priority 2010, published 2011)
